The subject of data set [1] is CytA. The data set is described as follows: In vitro CytA enzymatic activity assay (HPLC analysis). Format: biochemical, Streptomyces sp. SCSIO 1666. Conditions: absence of O2 (anaerobic); 25 μM substrate, 0.5 μM CytA, 20 μM NADH, 37 °C. The source says: To explore the biochemical activity of CytA in vitro, the cytA gene was cloned into the NdeI and EcoRI sites of the pET28a (+) vector and the resulting vector was transformed into E. coli BL21(DE3) using previously described methods. CytA was overexpressed as an N-terminally His6-tagged soluble protein and purified to homogeneity by Ni affinity chromatography (Fig. 2a). […] The activity of CytA was first investigated using substrates 6–9 and ε-rhodomycinone (10) under aerobic conditions. Reactions with CytA were conducted at 37 °C in a volume of 100 μL consisting of 50 mM Tris-Cl (pH 8.0), 25 μM substrate, 0.5 μM CytA, and 20 μM NADH. Reactions with boiled CytA served as controls; all reactions were carried out in parallel to ensure reaction consistency. Reactions were terminated by addition of twofold volume of methanol. As expected, CytA failed, under aerobic conditions to modify any of the substrates 6–10. […] On the heels of this finding we then determined the kinetic parameters of CytA using 6 and 7 as substrates.
Enzymatic reactions were carried out under anaerobic conditions in an anaerobic workstation (Don Whitley Scientific A45) containing a gas phase of N2/H2/CO2 (80:10: 10%, by vol.). ^1H, ^13C, and 2D (COSY, HMQC, HMBC and NOESY) NMR spectra were recorded at 25 °C with an Avance 700 MHz spectrometer instruments (Bruker). […]

The test system of the next data set is B. subtilis BS01. Briefly: Antibacterial activity, broth dilution MIC. In kind it is cell-based. The settings on record: Bacillus subtilis, BS01, read-out: MIC values, BS. A digest of the protocol: (§1)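 MIC read by the CLSI broth dilution method. Test agents are diluted twofold stepwise in Mueller-Hinton broth.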
The next data set concerns E. faecalis ATCC 29212. Briefly: Antibacterial activity, broth dilution MIC. In kind it is cell-based. The settings on record: Enterococcus faecalis, ATCC29212, read-out: MIC values, EF. In short, it runs like this:
as §1

Data set [2] concerns Staphylococcus aureus ATCC 29213. Briefly: Antibacterial activity, broth dilution MIC. The settings on record: Staphylococcus aureus, ATCC29213, read-out: MIC values, SA1. In kind it is cell-based. A digest of the protocol: as §1
A general note: Broth dilution looks for growth in wells or tubes with falling amounts of substance.

The test system of a further data set is B. thuringiensis BT01. The data set is described as follows: Antibacterial activity, broth dilution MIC. Format: cell-based. The settings on record: Bacillus thuringiensis, BT01, read-out: MIC values, BT. In short, it runs like this:
as §1

The subject of data set [3] is Staphylococcus aureus 745524. Briefly: Antibacterial activity, broth dilution MIC. In kind it is cell-based. Conditions: Staphylococcus aureus, 745524, read-out: MIC values, SA2. A digest of the protocol:
as §1

The subject of data set [4] is CytA. The data set is described as follows: Enzyme kinetics of CytA (formation of deglycosylation products, anaerobic). In kind it is biochemical, Streptomyces sp. SCSIO 1666. The settings on record: for fold more efficient CytA processing than for 22–26: relative to clinical anthracyclines 22–26; for Km / kcat: substrate of CytA, 0.5 μM CytA, 20 μM NADH, anaerobic. A digest of the protocol:
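N-terminally His6-tagged CytA expressed in E. coli was run anaerobically (N2/H2/CO2) in 50 mM Tris-Cl pH 8.0 with 0.5 μM enzyme, 20 μM NADH and 4.5–450 μM substrate at 37 °C. Reactions were MeOH-quenched and deglycosylation products quantified by HPLC-UV (254/500 nm). Km and Vmax came from Michaelis-Menten fits of initial velocities, triplicate.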

The test system of data set [5] is MDA-MB-231 human triple negative breast adenocarcinoma cell line. The data set is described as follows: Cytotoxic activity, MTT method. Format: cell-based. Conditions: MDA-MB-231, read-out: Cytotoxic activities IC50, MDA-MB-231. An excerpt: (§2) All data were obtained in triplicate and are presented as means.
(Tetrazolium dyes change colour on reduction, which living cells bring about.)

Data set [6] concerns MCF-7 human breast adenocarcinoma cell line. Briefly: Cytotoxic activity, MTT method. Format: cell-based. The settings on record: MCF7, read-out: Cytotoxic activities IC50, MCF-7.
Description: as §2

Data set [7] deals with HepG2 human hepatocellular carcinoma cell line. The data set is described as follows: Cytotoxic activity, MTT method. The settings on record: HepG2, read-out: Cytotoxic activities IC50, HepG2. In kind it is cell-based.
Description: as §2

The test system of data set [8] is A549 human lung cancer cell line. Briefly: Cytotoxic activity, MTT method. In kind it is cell-based. Conditions: A549, read-out: Cytotoxic activities IC50, A549.
Description: as §2

For data set [9], the system named is RKO human colorectal carcinoma cell line. The data set is described as follows: Cytotoxic activity, MTT method. Format: cell-based. Conditions: read-out: Cytotoxic activities IC50, RKO.
Description: as §2

Data set [10] is described as follows: Cytotoxic activity, MTT method. The settings on record: human. Format: cell-based.
Description: as §2

Data set [11] concerns MDA-MB-468 human triple negative breast adenocarcinoma cell line. Briefly: Cytotoxic activity, MTT method. Format: cell-based. Conditions: MDA-MB-468, read-out: Cytotoxic activities IC50, MDA-MB-468.
Description: as §2

Data set [12] relates to HeLa human cervical carcinoma cell line. Briefly: Cytotoxic activity, MTT method. In kind it is cell-based. The settings on record: read-out: Cytotoxic activities IC50, HeLa.
Description: as §2

Setting [13] is: Huvec-12 normal cell line, read-out: Cytotoxic activities IC50, Huvec-12.
Where [14] appears, read: L02 normal cell line, read-out: Cytotoxic activities IC50, L02.

Converted amounts (≈) assume the structure as drawn. Where two headings read alike, the source gives them in different places.

As usually defined, the MIC is the lowest concentration found to suppress growth. As usually defined, the Km is the concentration of substrate that gives half-maximal velocity. In general, kcat refers to the maximal rate divided by the concentration of active sites. Broadly, the IC50 is the concentration that gives 50% inhibition. With `CC[C@@]1(O)C[C@H](O[C@H]2C[C@H](N(C)C)[C@@H](O[C@H]3C[C@H](O)[C@@H](O[C@H]4CC[C@H](O)[C@H](C)O4)[C@H](C)O3)[C@H](C)O2)c2c(O)c3c(c(O)c2[C@H]1O[C@H]1C[C@H](N(C)C)[C@@H](O[C@H]2CC[C@H](O[C@H]4CC[C@H](O)[C@H](C)O4)[C@H](C)O2)[C@H](C)O1)C(=O)c1cccc(O)c1C3=O` [Compound 6, cosmomycin C], the “conversion by CytA (C-7 reduction/deglycosylation)” value with CytA [1] is reported as “readily convert”. Also, the minimum inhibitory concentration (MIC) is 0.06 µg/mL (≈ 0.0511 µM) in the data set with B. subtilis BS01; 0.001 µg/mL (≈ 0.000852 µM) in the data set on E. faecalis ATCC 29212; 0.03 µg/mL (≈ 0.0256 µM) in [2]; 0.125 µg/mL (≈ 0.107 µM) in the data set on B. thuringiensis BT01; 0.005 µg/mL (≈ 0.00426 µM) in [3]. Also, in the data set on CytA [4], the “fold more efficient CytA processing than for 22–26” value is on record as 2–3 fold. In addition, the Km in the data set on CytA [4] worked out at 14.3 µM. For the same molecule, the kcat in the data set with CytA [4] was 0.0118 s⁻¹. In addition, the IC50 in data set [5] is 640 nM; in [6], 270 nM; in data set [7], 24 nM; in [8], 35 nM; in data set [9], 17 nM; in data set [10] (setting [13]), 290 nM. Besides, the IC50 in data set [10] (setting [14]) was 100 nM; in data set [11], 500 nM; in [12], 17 nM.

Consider `CC[C@@]1(O)C[C@H](O[C@H]2C[C@H](N(C)C)[C@H](O[C@H]3C[C@H](O)[C@H](O[C@H]4CC[C@H](O)[C@H](C)O4)[C@H](C)O3)[C@H](C)O2)c2c(O)c3c(c(O)c2[C@H]1O[C@H]1C[C@H](N(C)C)[C@H](O[C@H]2C[C@H](O)[C@H](O[C@H]4CC[C@H](O)[C@H](C)O4)[C@H](C)O2)[C@H](C)O1)C(=O)c1cccc(O)c1C3=O` [Compound 7, cosmomycin D], for which the “conversion by CytA (C-7 reduction/deglycosylation)” value in the data set on CytA [1] was “readily convert”. Also, the MIC in the data set with B. subtilis BS01 stood at 0.03 µg/mL (≈ 0.0252 µM); with E. faecalis ATCC 29212, 0.002 µg/mL (≈ 0.00168 µM); in data set [2], 0.01 µg/mL (≈ 0.00841 µM); with B. thuringiensis BT01, 0.125 µg/mL (≈ 0.105 µM); in data set [3], 0.005 µg/mL (≈ 0.0042 µM). The “fold more efficient CytA processing than for 22–26” value with CytA [4] was 2–3 fold. The Km with CytA [4] stood at 17.9 µM. In addition, the kcat in the data set with CytA [4] was found to be 0.0132 s⁻¹. Moreover, the concentration for half-maximal inhibition (IC50) stood at 660 nM in data set [5]; 510 nM in data set [6]; 31 nM in [7]; 19 nM in data set [8]; 99 nM in data set [9]; 300 nM in [10] (setting [13]). For the same molecule, the IC50 in data set [10] (setting [14]) amounted to 130 nM; in [11] it was 1840 nM; in data set [12] it was 110 nM.

The values above are taken from paper PMC6897945, “CytA, a reductase in the cytorhodin biosynthesis pathway, inactivates anthracycline drugs in Streptomyces” (Communications Biology, 2019).
